Experimental findings from publication PMC12645437, “Orthogonal IMiD-Degron Pairs Induce Selective Protein Degradation in Cells” (ACS Chemical Biology, 2025) are described below.

Assay [1] concerns library of 8380 IKZF3 degrons fused to EGFP in Jurkat cells. In words: Pooled mutant ZF degron library screen (FACS EGFPlow vs EGFP+, NGS), 18 h.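 On logFC: Log2 fold change of EGFPlow over EGFP+ representation.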 In kind it is cell-based, human.
In assay [2] the target is T1, Q147A mutant degron (ANQS) fused to EGFP (Homo sapiens, UniProt Q96SW2+Q9UKT9, Q147A).
T1 construct: pLVX-Sprout-IKZF3 130-189aa Q147A (ANQS); expressed in transfected cells
T1 sequence (Q9UKT9 130-189 Q147A): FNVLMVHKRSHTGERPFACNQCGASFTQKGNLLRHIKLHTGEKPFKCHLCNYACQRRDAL
T1 sequence (Q96SW2 whole entry, the tested form may be a part): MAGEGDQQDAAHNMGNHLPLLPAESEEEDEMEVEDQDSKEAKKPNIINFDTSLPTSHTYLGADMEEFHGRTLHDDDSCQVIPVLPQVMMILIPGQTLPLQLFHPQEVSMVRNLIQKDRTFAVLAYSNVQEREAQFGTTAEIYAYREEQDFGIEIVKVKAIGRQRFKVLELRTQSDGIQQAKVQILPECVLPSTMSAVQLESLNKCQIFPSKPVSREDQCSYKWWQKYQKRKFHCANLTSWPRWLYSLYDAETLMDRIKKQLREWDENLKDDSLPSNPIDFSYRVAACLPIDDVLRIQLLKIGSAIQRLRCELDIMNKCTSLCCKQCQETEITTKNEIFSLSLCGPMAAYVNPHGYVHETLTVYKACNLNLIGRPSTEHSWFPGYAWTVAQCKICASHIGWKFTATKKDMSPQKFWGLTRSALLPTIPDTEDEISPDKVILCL
T1 sequence (Q16531 whole entry partner, the tested form may be a part): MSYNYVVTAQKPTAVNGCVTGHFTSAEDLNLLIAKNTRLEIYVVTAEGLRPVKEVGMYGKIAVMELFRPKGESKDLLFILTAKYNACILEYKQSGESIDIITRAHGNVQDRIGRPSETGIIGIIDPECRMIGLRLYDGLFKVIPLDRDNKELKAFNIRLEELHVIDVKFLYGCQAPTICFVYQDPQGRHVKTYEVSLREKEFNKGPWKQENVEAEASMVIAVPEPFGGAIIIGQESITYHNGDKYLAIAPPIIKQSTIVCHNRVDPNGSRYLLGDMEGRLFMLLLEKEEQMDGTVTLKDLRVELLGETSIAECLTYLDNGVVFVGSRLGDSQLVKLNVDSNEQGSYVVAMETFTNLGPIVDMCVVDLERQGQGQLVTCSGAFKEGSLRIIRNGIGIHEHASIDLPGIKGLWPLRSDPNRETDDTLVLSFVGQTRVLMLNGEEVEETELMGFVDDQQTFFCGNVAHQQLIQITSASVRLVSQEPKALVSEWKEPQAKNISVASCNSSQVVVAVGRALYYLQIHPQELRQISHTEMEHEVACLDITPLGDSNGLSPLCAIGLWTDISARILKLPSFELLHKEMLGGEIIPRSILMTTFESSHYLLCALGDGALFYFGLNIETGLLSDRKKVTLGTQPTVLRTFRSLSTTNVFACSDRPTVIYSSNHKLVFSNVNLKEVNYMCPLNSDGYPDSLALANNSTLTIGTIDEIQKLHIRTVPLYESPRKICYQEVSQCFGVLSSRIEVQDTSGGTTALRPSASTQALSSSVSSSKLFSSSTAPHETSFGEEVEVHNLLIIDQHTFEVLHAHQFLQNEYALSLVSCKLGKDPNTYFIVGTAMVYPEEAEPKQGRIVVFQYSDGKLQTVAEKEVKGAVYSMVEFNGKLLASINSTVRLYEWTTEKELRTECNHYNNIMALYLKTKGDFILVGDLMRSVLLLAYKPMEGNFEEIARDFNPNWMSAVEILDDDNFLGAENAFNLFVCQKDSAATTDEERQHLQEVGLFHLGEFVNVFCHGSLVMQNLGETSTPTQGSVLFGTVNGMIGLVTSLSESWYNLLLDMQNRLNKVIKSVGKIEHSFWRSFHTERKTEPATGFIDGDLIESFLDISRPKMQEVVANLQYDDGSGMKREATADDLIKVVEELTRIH
In words: Ratiometric EGFP:mCherry flow cytometry degradation assay, 18 h. In kind it is cell-based. Particulars: Jurkat, read-out: DMax Q147A/%. On the technique in general: In flow cytometry, cells or beads pass a laser one at a time.

Assay [3] concerns the target T2, endogenous IKZF1 in Jurkat cells (Homo sapiens, UniProt Q13422+Q96SW2).
T2 construct: endogenous in cells; host or cells: Jurkat (untransduced for immunostaining; WEIS-EGFP-transduced for the blot)
In words: Endogenous IKZF1 immunostaining, fluorescent antibody flow cytometry assay. In kind it is cell-based. Particulars: 18 h. The procedure: As we sought to screen a large number of mutant ZF degrons with different mutation combinations, we pursued a library screen approach similar to that previously employed by Sievers et al. and Jan et al. , Only the most promising compounds from the original set of 36 were used for the library screen. To help narrow the candidates, a subset of compounds was tested for endogenous IKZF1 degradation in Jurkat cells using a fluorescent antibody flow cytometry assay (Figure S5). […] Thalidomide and lenalidomide were also included as controls.
Endogenous IKZF1 Immunostaining
37 °C and 5% CO2. Following incubation, cells were stained with LIVE/DEAD™ Fixable Aqua Dead Cell Stain (Thermo) diluted 1000X in PBS for 30 min at room temperature and then incubated with Human TruStain FcX block (Biolegend) diluted 40X in PBS + 1% FBS (Gibco) for 10 min at room temperature. Intranuclear staining of IKZF1 was carried out using the Transcription Factor Buffer Set (BD Bioscience) according to the manufacturer's protocol and staining with IKZF1 AF488 antibody (clone R32-1149, BD Bioscience) diluted 40X for 30 minutes at room temperature. Cells were acquired on a Cytoflex S (Beckman Coulter) and data analysed using FlowJo 10.8.1 9 (BD).

In assay [4] the target is T3, ZF-EGFP fusion protein with the HEIP, AEVK, WEIS, or WT ZF degron (Homo sapiens, UniProt Q9UKT9).
T3 construct: The degron spans residues 130–189 of IKZF3; expressed in transfected cells; host or cells: Jurkat, lentivirally transduced, presorted mCherry+
T3 sequence (Q96SW2 whole entry, the tested form may be a part): as the sequence (Q96SW2 whole entry, the tested form may be a part) above
T3 sequence (Q9UKT9 130-189): as the sequence (Q9UKT9 130-189 Q147A) above, with A18Q counted along it
T3 sequence (Q16531 2-1140, further chain): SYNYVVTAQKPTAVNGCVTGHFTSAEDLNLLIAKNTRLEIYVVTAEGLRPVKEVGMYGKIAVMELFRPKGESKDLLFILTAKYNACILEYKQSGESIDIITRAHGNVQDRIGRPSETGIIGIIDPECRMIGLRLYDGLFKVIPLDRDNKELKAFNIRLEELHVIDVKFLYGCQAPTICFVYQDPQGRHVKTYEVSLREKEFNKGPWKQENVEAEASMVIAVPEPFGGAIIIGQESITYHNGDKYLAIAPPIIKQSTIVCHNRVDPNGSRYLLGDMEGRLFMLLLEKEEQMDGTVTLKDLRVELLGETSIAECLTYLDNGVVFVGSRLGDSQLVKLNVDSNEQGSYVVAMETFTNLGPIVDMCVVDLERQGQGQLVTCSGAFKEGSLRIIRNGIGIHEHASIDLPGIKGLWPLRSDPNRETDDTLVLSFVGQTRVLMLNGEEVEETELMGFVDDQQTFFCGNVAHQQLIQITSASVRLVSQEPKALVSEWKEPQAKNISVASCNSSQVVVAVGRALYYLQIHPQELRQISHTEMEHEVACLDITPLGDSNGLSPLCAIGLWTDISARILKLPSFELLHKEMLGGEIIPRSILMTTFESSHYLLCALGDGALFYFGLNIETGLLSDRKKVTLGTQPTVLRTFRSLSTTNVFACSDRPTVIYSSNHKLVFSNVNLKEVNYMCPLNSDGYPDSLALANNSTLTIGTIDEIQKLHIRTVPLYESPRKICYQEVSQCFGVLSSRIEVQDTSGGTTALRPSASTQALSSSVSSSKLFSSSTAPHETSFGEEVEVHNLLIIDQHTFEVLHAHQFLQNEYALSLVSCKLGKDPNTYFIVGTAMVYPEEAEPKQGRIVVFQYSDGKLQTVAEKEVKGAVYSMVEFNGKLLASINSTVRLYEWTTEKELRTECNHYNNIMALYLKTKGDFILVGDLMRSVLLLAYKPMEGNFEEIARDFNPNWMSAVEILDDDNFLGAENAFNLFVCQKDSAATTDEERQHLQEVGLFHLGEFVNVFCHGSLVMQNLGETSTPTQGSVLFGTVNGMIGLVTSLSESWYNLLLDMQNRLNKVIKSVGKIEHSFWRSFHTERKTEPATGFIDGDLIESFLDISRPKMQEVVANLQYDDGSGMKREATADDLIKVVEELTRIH
Kind of assay: Western blot for ZF-EGFP fusion protein. In kind it is cell-based.

The test system of a further assay is MM.1S cells. In words: TMTpro quantitative proteomics, 16 h. Particulars: 1 μM.
For assay [5], the target named is T4, endogenous IKZF3 in Jurkat cells (Homo sapiens, UniProt Q96SW2+Q9UKT9).
T4 construct: endogenous in cells; host or cells: Jurkat (transduced with ZF-EGFP constructs, or untransduced)
T4 sequence (Q9UKT9 whole entry): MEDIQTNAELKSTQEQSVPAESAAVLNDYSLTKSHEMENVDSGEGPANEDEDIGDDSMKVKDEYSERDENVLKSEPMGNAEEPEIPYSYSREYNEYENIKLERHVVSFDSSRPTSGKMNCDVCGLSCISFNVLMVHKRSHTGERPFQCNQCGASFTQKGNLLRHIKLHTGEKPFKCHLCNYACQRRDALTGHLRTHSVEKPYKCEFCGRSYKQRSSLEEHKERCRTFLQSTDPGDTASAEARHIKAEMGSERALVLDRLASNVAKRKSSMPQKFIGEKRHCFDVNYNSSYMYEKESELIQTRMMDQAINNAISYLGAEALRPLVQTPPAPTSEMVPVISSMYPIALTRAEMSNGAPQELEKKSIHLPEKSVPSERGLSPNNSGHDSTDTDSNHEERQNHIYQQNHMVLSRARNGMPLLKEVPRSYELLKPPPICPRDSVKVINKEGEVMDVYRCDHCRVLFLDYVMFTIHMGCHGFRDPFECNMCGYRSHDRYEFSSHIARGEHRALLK
T4 sequence (Q96SW2 whole entry): as the sequence (Q96SW2 whole entry, the tested form may be a part) above
T4 sequence (Q16531 whole entry partner): as the sequence (Q16531 whole entry partner, the tested form may be a part) above
In words: Western blot for endogenous IKZF3. In kind it is cell-based. (Immunoblotting shows a protein as a band on a membrane.)

The next assay relates to Jurkat cells. Kind of assay: TMTpro quantitative proteomics, 16 h. Particulars: Jurkat whole cell extracts, TMTpro SPS-MS3.
Setting [6] is: WT degron, residues 146/147/149/150/152/153/154/155/167: FQNQGASFL
Where [7] appears, read: degron residues 146/147/149/150/152/153/154/155/167: FADIGAAFL
Where [8] appears, read: degron residues 146/147/149/150/152/153/154/155/167: FADIGACFL
[9] abbreviates: degron residues 146/147/149/150/152/153/154/155/167: FADIGADFL
Where [10] appears, read: degron residues 146/147/149/150/152/153/154/155/167: FADIGAEFL
The mark [11] stands for this setting: degron residues 146/147/149/150/152/153/154/155/167: FREIGAPFL
Where [12] appears, read: degron residues 146/147/149/150/152/153/154/155/167: FYEVGACFL
The mark [13] stands for this setting: protein AADAT isoform 2 (Q8N5Z0-2).

SMILES strings stand for the structures. Several values for one entry are separate records, joined by “and”; a condition that tells them apart may be missing. Identical values can stand only once. Like-named read-outs stand apart in the source and are kept apart here.

T2 sequence (Q13422 whole entry): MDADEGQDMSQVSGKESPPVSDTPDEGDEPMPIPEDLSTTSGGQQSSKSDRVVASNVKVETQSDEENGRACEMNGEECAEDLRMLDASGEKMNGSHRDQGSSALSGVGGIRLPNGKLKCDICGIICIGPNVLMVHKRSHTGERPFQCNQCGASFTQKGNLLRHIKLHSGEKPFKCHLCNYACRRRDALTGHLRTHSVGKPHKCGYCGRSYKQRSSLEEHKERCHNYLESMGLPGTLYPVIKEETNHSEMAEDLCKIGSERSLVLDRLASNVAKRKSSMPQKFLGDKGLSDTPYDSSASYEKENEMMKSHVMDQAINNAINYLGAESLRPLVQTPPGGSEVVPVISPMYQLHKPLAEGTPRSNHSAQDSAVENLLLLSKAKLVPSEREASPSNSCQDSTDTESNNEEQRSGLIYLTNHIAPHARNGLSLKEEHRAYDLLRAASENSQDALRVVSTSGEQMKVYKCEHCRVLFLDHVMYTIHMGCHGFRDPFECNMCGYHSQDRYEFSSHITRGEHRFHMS
T2 sequence (Q96SW2 whole entry): as the sequence (Q96SW2 whole entry, the tested form may be a part) above
T2 sequence (Q16531 whole entry partner): as the sequence (Q16531 whole entry partner, the tested form may be a part) above
Method for MM.1S cells: Quantitative proteomics screens were carried out in untransduced Jurkat cells, embryonic stem cells (ESCs), and the multiple myeloma cell line, MM.1S. We used Jurkat cells, as our work up to this point had employed this cell line, and we selected ESCs and MM.1S cells as they express known CRBN neosubstrates, including IKZF1, IKZF3, RAB28, RNF166, SALL4, ZFP91, and ZNF827.
Proteomics - cell lysis and protein digestion
The viability of Jurkat cells was tested after 16-h treatment with corresponding chemicals
viable cells in each condition. Next, ~10^7 cells per condition were collected by centrifugation (1000 rpm), washed twice with ice-cold PBS, and lysed in RIPA buffer [50 mM HEPES pH 7.4, 150 mM NaCl, 1% sodium deoxycholate, 1% NP-40, 0.1% SDS, 10 mM sodium pyrophosphate, 10 mM β-glycerophosphate, 2.5 mM MgCl2, 200 µM TCEP, phosphatase and protease inhibitor cocktail (in-house)], to produce whole cell extracts. Whole-cell extracts were sonicated, and protein concentrations were determined using the Bradford assay. Protein extracts (100 µg) were subjected to disulfide bond reduction with 5 mM TCEP (10 min) and alkylation with 25 mM chloroacetamide (20 min). Methanol–chloroform precipitation was performed prior to protease digestion. […]

`O=C1CCC(N2C(=O)c3ccc(N4CCOCC4)cc3C2=O)C(=O)N1` (centres unmarked) [Compound 22]: the Log2FC is -1.0370 in assay [1] (setting [6]); 3.8315 in assay [1] (degron residues 146/147/149/150/152/153/154/155/167: FFEIGACFL); 3.937 in assay [1] (degron residues 146/147/149/150/152/153/154/155/167: FIPVGAPFL); 3.9835 and 3.984 in assay [1] (setting [11]); 3.8903 in assay [1] (degron residues 146/147/149/150/152/153/154/155/167: FWDVGANFL); 3.8513 in assay [1] (degron residues 146/147/149/150/152/153/154/155/167: FWDVGAQFL). Besides, the Log2FC in assay [1] (degron residues 146/147/149/150/152/153/154/155/167: FWEIGAAFL) was 3.8306; in assay [1] (degron residues 146/147/149/150/152/153/154/155/167: FWEIGAQFL), 3.9298 and 3.93; in assay [1] (degron residues 146/147/149/150/152/153/154/155/167: FWEVGAAFL), 3.9041; in assay [1] (degron residues 146/147/149/150/152/153/154/155/167: FWEVGAHFL) it was 3.9186; in assay [1] (degron residues 146/147/149/150/152/153/154/155/167: FWEVGAKFL), 3.8571; in assay [1] (degron residues 146/147/149/150/152/153/154/155/167: FWEVGANFL), 3.8564. Further, the Log2FC in assay [1] (degron residues 146/147/149/150/152/153/154/155/167: FWPVGANFL) is 3.8155; in assay [1] (degron residues 146/147/149/150/152/153/154/155/167: FWPVGAQFL), 3.9190; in assay [1] (degron residues 146/147/149/150/152/153/154/155/167: FYEIGAKFL), 3.8391; in assay [1] (degron residues 146/147/149/150/152/153/154/155/167: FYEIGATFL), 4.0154 and 4.054; in assay [1] (setting [12]), 3.8457; in assay [1] (degron residues 146/147/149/150/152/153/154/155/167: FYEVGANFL), 3.8762. For the same compound, the Log2FC was 3.8615 in assay [1] (degron residues 146/147/149/150/152/153/154/155/167: FYEVGASFL); 4.1392 and 4.14 in assay [1] (degron residues 146/147/149/150/152/153/154/155/167: FYEVGATFL); 3.9018 in assay [1] (degron residues 146/147/149/150/152/153/154/155/167: LYEIGFRCL). In addition, the logFC in assay [1] (setting [7]) was 2.037; in assay [1] (setting [8]), 0.5955; in assay [1] (setting [9]), -1.619; in assay [1] (setting [10]), -0.4533. For the same compound, the Dmax in assay [2] (18 h, Fig 2B) turned out to be 76%. In addition, the “degradation of endogenous IKZF1” value in assay [3] is “did not induce degradation of endogenous IKZF1”.
For the compound `Nc1cccc2c1C(=O)N(C1CCC(=O)NC1=O)C2=O` (centres unmarked) [Compound 2, pomalidomide], in assay [4], the “degradation of WT degron-tagged EGFP (Western blot)” value is given as “induced degradation of EGFP”. For the same compound, in the assay on MM.1S cells, the “proteins significantly degraded (quantitative proteomics)” value was “IKZF1, IKZF3, and at least 6 other proteins were significantly degraded”. In assay [5], the “degradation of endogenous IKZF3 (Western blot)” value was “did cause IKZF3 degradation”. Further, the “endogenous IKZF3 levels (Western blot)” value in assay [5] is “depleted endogenous IKZF3”. Also, the Dmax in assay [2] is 94%. The “Scaled value (to 150), replicate 01” value with Jurkat cells (protein A2M (P01023)) is recorded as 7.144; with Jurkat cells (protein AAAS (Q9NRG9)) it was 9.781; in the assay with Jurkat cells (protein AACS (Q86V21)) it was 9.6081; with Jurkat cells (setting [13]), 9.467. Further, the “Scaled value (to 150), replicate 02” value with Jurkat cells (protein A2M (P01023)) worked out at 8.281; with Jurkat cells (protein AAAS (Q9NRG9)), 9.111; in the assay with Jurkat cells (protein AACS (Q86V21)), 10.2184; in the assay with Jurkat cells (setting [13]) it was 10.1133. The “Scaled value (to 150), replicate 03” value in the assay on Jurkat cells (protein A2M (P01023)) was 7.913; with Jurkat cells (protein AAAS (Q9NRG9)), 9.328; with Jurkat cells (protein AACS (Q86V21)), 9.9438; with Jurkat cells (setting [13]), 9.458.
As for `O=C1CCC(N2C(=O)c3cccc(NC(c4ccccc4)c4ccccc4)c3C2=O)C(=O)N1` (centres unmarked) [Compound 33], the Log2FC in assay [1] (setting [6]) was -1.2556; in assay [1] (degron residues 146/147/149/150/152/153/154/155/167: FGPVGAFFL), 3.1139; in assay [1] (degron residues 146/147/149/150/152/153/154/155/167: FMEIGAAFL) it was 3.1949; in assay [1] (degron residues 146/147/149/150/152/153/154/155/167: FMEIGAPFL) it was 3.1328; in assay [1] (degron residues 146/147/149/150/152/153/154/155/167: FMEVGAPFL) it was 3.1157; in assay [1] (degron residues 146/147/149/150/152/153/154/155/167: FMNIGAPFL) it was 3.2358 and 3.236. Moreover, the Log2FC in assay [1] (degron residues 146/147/149/150/152/153/154/155/167: FMPIGAPFL) was 3.0896; in assay [1] (degron residues 146/147/149/150/152/153/154/155/167: FMPVGAAFL), 3.0783; in assay [1] (degron residues 146/147/149/150/152/153/154/155/167: FMPVGAPFL), 3.0869; in assay [1] (degron residues 146/147/149/150/152/153/154/155/167: FRDIGAPFL), 3.3226 and 3.323; in assay [1] (degron residues 146/147/149/150/152/153/154/155/167: FRDVGAPFL), 3.2095; in assay [1] (setting [11]), 3.3123. In addition, the Log2FC in assay [1] (degron residues 146/147/149/150/152/153/154/155/167: FREVGAPFL) is 3.3928 and 3.393; in assay [1] (degron residues 146/147/149/150/152/153/154/155/167: FRPVGAPFL), 3.2684 and 3.268; in assay [1] (degron residues 146/147/149/150/152/153/154/155/167: FYEIGAQFL), 3.1346; in assay [1] (setting [12]), 3.1049; in assay [1] (degron residues 146/147/149/150/152/153/154/155/167: LCPIGFTCL), 3.1410; in assay [1] (degron residues 146/147/149/150/152/153/154/155/167: LCPIGFYCL), 3.1590. Moreover, the Log2FC stood at 3.0997 in assay [1] (degron residues 146/147/149/150/152/153/154/155/167: LYEIGFSCL), 3.1905 in assay [1] (degron residues 146/147/149/150/152/153/154/155/167: LYEIGFTCL) and 3.0902 in assay [1] (degron residues 146/147/149/150/152/153/154/155/167: LYPIGFSCL). The logFC is -0.4744 in assay [1] (setting [7]), -0.1939 in assay [1] (setting [8]), -2.168 in assay [1] (setting [9]) and -2.426 in assay [1] (setting [10]). Also, the Dmax in assay [2] (18 h, Fig 2B) was determined as 97%. For the same compound, in assay [3], the “degradation of endogenous IKZF1” value was “modest degradation of IKZF1”.
